The record followed here is US9199943B2, “2-(poly-substituted aryl)-6-amino-5-halo-4-pyrimidinecarboxylic acids and their use as herbicides” (Dow AgroSciences, LLC., priority 2006, dated 2015).

The term pest or weed control denotes the degree to which the test organism was suppressed or injured, in per cent.

Holding throughout (type): in vivo
The test system of assay [1] is CHEAL = lambsquarter (Chenopodium album). Nature of the assay: General postemergence herbicidal activity, lambsquarter. Particulars: Chenopodium album, post-emergence, 336 h; post-emergent, 140 g ai/ha, visual score after 14 days (0 no injury, 100 complete kill). Here is the method: Seeds or nutlets of the desired test plant species were planted in Sun Gro MetroMix® 306 planting mixture, which typically has a pH of 6.0 to 6.8 and an organic matter content of about 30 percent, in plastic pots with a surface area of 64 square centimeters. When required to ensure good germination and healthy plants, a fungicide treatment and/or other chemical or physical treatment was applied. The plants were grown for 7-21 days in a greenhouse with an approximate 15 hour photoperiod which was maintained at about 23-29° C. during the day and 22-28° C. during the night. Nutrients and water were added on a regular basis and supplemental lighting was provided with overhead metal halide 1000-Watt lamps as necessary. The plants were employed for testing when they reached the first or second true leaf stage.
A weighed amount, determined by the highest rate to be tested, of each test compound was placed in a 25 mL glass vial and was dissolved in 4 mL of a 97:3 v/v (volume/volume) mixture of acetone and dimethyl sulfoxide (DMSO) to obtain concentrated stock solutions. […] The concentrated stock solutions obtained were diluted with 20 mL of an aqueous mixture containing acetone, water, isopropyl alcohol, DMSO, Atplus 411F crop oil concentrate, and Triton X-155 surfactant in a 48.5:39:10:1.5:1.0:0.02 v/v ratio to obtain spray solutions containing the highest application rates. Additional application rates were obtained by serial dilution of 12 mL of the high rate solution into a solution containing 2 mL of 97:3 v/v (volume/volume) mixture of acetone and dimethyl sulfoxide (DMSO) and 10 mL of an aqueous mixture containing acetone, water, isopropyl alcohol, DMSO, Atplus 411F crop oil concentrate, and Triton X-155 surfactant in a 48.5:39:10:1.5:1.0:0.02 v/v ratio to obtain ½×, ¼×, ⅛× and 1/16× rates of the high rate. Compound requirements are based upon a 12 mL application volume at a rate of 187 L/ha. Formulated compounds were applied to the plant material with an overhead Mandel track sprayer equipped with a 8002E nozzles calibrated to deliver 187 L/ha over an application area of 0.503 square meters at a spray height of 18 inches (43 cm) above the average plant canopy height. Control plants were sprayed in the same manner with the solvent blank.
The treated plants and control plants were placed in a greenhouse as described above and watered by sub-irrigation to prevent wash-off of the test compounds. After 14 days, the condition of the test plants as compared with that of the untreated plants was determined visually and scored on a scale of 0 to 100 percent where 0 corresponds to no injury and 100 corresponds to complete kill.
By applying the well-accepted probit analysis as described by J. Berkson in Journal of the […], 48, 565 (1953) and by D. Finney in “Probit Analysis” Cambridge University Press (1952), the above data can be used to calculate GR50 and GR80 values, which are defined as growth reduction factors that correspond to the effective dose of herbicide required to kill or control 50 percent or 80 percent, respectively, of a target plant.

For assay [2], the system named is TRZAS = wheat (Triticum aestivum). Description: Postemergence herbicidal activity in cereal crops, wheat. Particulars: post-emergence, 480 h, post-emergent, wheat (crop), after 20-22 days; for pest or weed control at 17.5 g/ha: 17.5 g ai/ha; for pest or weed control at 70 g/ha: 70 g ai/ha; for pest or weed control at 35 g/ha: 35 g ai/ha. On the procedure: (§1) Seeds of the desired test plant species were planted in Sun Gro MetroMix® 306 planting mixture, which typically has a pH of 6.0 to 6.8 and an organic matter content of about 30 percent, in plastic pots with a surface area of 103.2 square centimeters. When required to ensure good germination and healthy plants, a fungicide treatment and/or other chemical or physical treatment was applied. The plants were grown for 7-36 days in a greenhouse with an approximate 14 hour photoperiod which was maintained at about 18° C. during the day and 17° C. during the night. Nutrients and water were added on a regular basis and supplemental lighting was provided with overhead metal halide 1000-Watt lamps as necessary. The plants were employed for testing when they reached the second or third true leaf stage.
(§2) A weighed amount, determined by the highest rate to be tested, of each test compound was placed in a 25 mL glass vial and was dissolved in 8 mL of a 97:3 v/v mixture of acetone and DMSO to obtain concentrated stock solutions. […] The concentrated stock solutions obtained were diluted with 16 mL of an aqueous mixture containing acetone, water, isopropyl alcohol, DMSO, Agri-dex crop oil concentrate, and Triton X-77 surfactant in a 64.7:26.0:6.7:2.0:0.7:0.01 v/v ratio to obtain spray solutions containing the highest application rates. Additional application rates were obtained by serial dilution of 12 mL of the high rate solution into a solution containing 4 mL of 97:3 v/v mixture of acetone and DMSO and 8 mL of an aqueous mixture containing acetone, water, isopropyl alcohol, DMSO, Agri-dex crop oil concentrate, and Triton X-77 surfactant in a 48.5:39.0:10.0:1.5:1.0:0.02 v/v ratio to obtain ½×, ¼×, ⅛× and 1/16× rates of the high rate. Compound requirements are based upon a 12 mL application volume at a rate of 187 L/ha. Formulated compounds were applied to the plant material with an overhead Mandel track sprayer equipped with a 8002E nozzles calibrated to deliver 187 L/ha over an application area of 0.503 square meters at a spray height of 18 inches (43 cm) above average plant canopy height. Control plants were sprayed in the same manner with the blank.
(§3) The treated plants and control plants were placed in a greenhouse as described above and watered by sub-irrigation to prevent wash-off of the test compounds. After 20-22 days, the condition of the test plants as compared with that of the untreated plants was determined visually and scored on a scale of 0 to 100 percent where 0 corresponds to no injury and 100 corresponds to complete kill.

A further assay deals with LAMPU = Lamium purpureum. Description: Postemergence herbicidal activity in cereal crops, Lamium purpureum. Conditions: post-emergence, 480 h, post-emergent, after 20-22 days; for pest or weed control at 17.5 g/ha: 17.5 g ai/ha; for pest or weed control at 70 g/ha: 70 g ai/ha; for pest or weed control at 35 g/ha: 35 g ai/ha. On the procedure:
as §1, §2, §3

In the case of `COC(=O)c1nc(-c2ccc(Cl)c(OC)c2F)nc(N)c1Br` [Compound 13, 6-amino-5-bromo-2-(4-chloro-2-fluoro-3-methoxyphenyl)-pyrimidine-4-carboxylic acid methyl ester], the pest or weed control at 140 g/ha in assay [1] was 100%. In addition, the pest or weed control at 17.5 g/ha is 0% in assay [2] and 95% in the assay with LAMPU = Lamium purpureum.
For the molecule `COC(=O)c1nc(-c2ccc(Cl)c(OC)c2F)nc(N)c1Cl` [Compound 3, 6-amino-5-chloro-2-(4-chloro-2-fluoro-3-methoxyphenyl)-pyrimidine-4-carboxylic acid methyl ester], in assay [1], the pest or weed control at 140 g/ha worked out at 100%. In addition, the figures for the pest or weed control at 17.5 g/ha (in assay [2]; in the assay with LAMPU = Lamium purpureum) were 0% and 99%, respectively.
With `COC(=O)c1nc(-c2ccc(Cl)c(OCC(F)F)c2F)nc(N)c1Cl` [Compound 10, 6-Amino-5-chloro-2-[4-chloro-3-(2,2-difluoroethoxy)-2-fluorophenyl]-pyrimidine-4-carboxylic acid methyl ester], the pest or weed control at 140 g/ha in assay [1] stood at 85%. Also, the pest or weed control at 70 g/ha in assay [2] was 5%; with LAMPU = Lamium purpureum, 85%.
`COC(=O)c1nc(-c2ccc(Cl)c(N(C)C)c2F)nc(N)c1Cl` [Compound 8, 6-Amino-5-chloro-2-(4-chloro-3-dimethylamino-2-fluorophenyl)pyrimidine-4-carboxylic acid methyl ester]: in assay [1], the pest or weed control at 140 g/ha came out at 100%. The figures for the pest or weed control at 35 g/ha (in assay [2]; in the assay on LAMPU = Lamium purpureum) were 15% and 85%, respectively.
Take `COC(=O)c1nc(-c2ccc(Cl)c(C(F)F)c2F)nc(N)c1Cl` [Compound 7, 6-Amino-5-chloro-2-(4-chloro-3-difluoromethyl-2-fluorophenyl)pyrimidine-4-carboxylic acid methyl ester]: the pest or weed control at 140 g/ha in assay [1] stood at 100%. The pest or weed control at 17.5 g/ha in assay [2] was 15%; in the assay on LAMPU = Lamium purpureum, 90%.
Regarding `COC(=O)c1nc(-c2ccc3c(c2F)OCO3)nc(N)c1Cl` [Compound 9, 6-Amino-5-chloro-2-(4-fluorobenzo[1,3]dioxol-5-yl)pyrimidine-4-carboxylic acid methyl ester], in assay [1], the pest or weed control at 140 g/ha came out at 90%. Also, the pest or weed control at 70 g/ha in assay [2] turned out to be 15%; in the assay on LAMPU = Lamium purpureum, 100%.
Consider `COC(=O)c1nc(-c2c(F)cc(Cl)c(OC)c2F)nc(N)c1Cl` [Compound 2, 6-amino-5-chloro-2-(4-chloro-2,6-difluoro-3-methoxy-phenyl)pyrimidine-4-carboxylic acid methyl ester], for which, in assay [1], the pest or weed control at 140 g/ha was 100%. Moreover, the pest or weed control at 35 g/ha in assay [2] worked out at 0%; with LAMPU = Lamium purpureum, 95%.
The molecule `COC(=O)c1nc(-c2ccc(Cl)c(OC)c2Cl)nc(N)c1Cl` [Compound 6, 6-Amino-5-chloro-2-(2,4-dichloro-3-methoxyphenyl)pyrimidine-4-carboxylic acid methyl ester] registered a pest or weed control at 140 g/ha in assay [1] of 100%. Besides, the results for the pest or weed control at 70 g/ha (in assay [2]; in the assay on LAMPU = Lamium purpureum) were 10% and 99%, respectively.
With `CCOc1c(Cl)ccc(-c2nc(N)c(Cl)c(C(=O)OC)n2)c1F` [Compound 1, 6-amino-5-chloro-2-(4-chloro-3-ethoxy-2-fluorophenyl)-pyrimidine-4-carboxylic acid methyl ester], the pest or weed control at 140 g/ha in assay [1] was 100%. In addition, the figures for the pest or weed control at 35 g/ha (in assay [2]; in the assay on LAMPU = Lamium purpureum) were 0% and 85%, respectively.
